Source: patent US20250241994A1, “PHARMACEUTICAL FORMULATION OF GLUCAGON-LIKE PEPTIDE -1 RECEPTOR AGONIST PEPTIDE FOR SUBLINGUAL DELIVERY” (Immunwork Inc., priority 2024, published 2025)
Converted amounts (≈) assume the structure as drawn.

What was measured:
[1] = Estimated bioavailability of sublingual relative to subcutaneous delivery (blood glucose lowering at 24 h); parameters: species or system db/db mice; conditions: male, db/db, mouse, in vivo, bioavailability of sublingually administered GLP-1 RA-P relative to subcutaneous administration
Source text: The term “bioavailability of GLP-1 RA-P” as used herein refers to an estimated bioavailability of a sublingually administered GLP-1 RA-P in relative to that achieved by subcutaneous injection. Accordingly, the “bioavailability of GLP-1 RA-P” is expressed as a percentage of bioavailability achieves by subcutaneous injected GLP-1 RA-P. To estimate the bioavailability of sublingual delivery in relative to subcutaneous delivery in db/db mice, the blood glucose-lowering effects of two sublingual doses of varying amounts were compared with one subcutaneous dose of a specific amount at the 24-hour time point (just before the third sublingual dose). […] By comparing the combined effect of the two sublingual doses to the subcutaneous dose, the relative bioavailability is estimated.
Further, blood glucose levels in db/db mice are highly sensitive to changes in GLP-1 RA-P drug concentrations, making glucose measurements a reliable indicator of the drug's availability in the bloodstream. In the experiments described in this study, the db/db mouse model was used to evaluate the efficiency of sublingual drug delivery, estimate bioavailability via sublingual versus subcutaneous administration, and examine the cumulative effects of repeated sublingual dosing.
For these experiments, 30 male db/db mice, aged 6 weeks and weighing 35-40 g, were used. […]

[2] = semaglutide: based on the known highest dosage form for subcutaneous injection; cited from earlier work

CC[C@H](C)[C@H](NC(=O)[C@H](CC(C)C)NC(=O)[C@H](Cc1c[nH]c2ccccc12)NC(=O)[C@H](CCC(N)=O)NC(=O)[C@@H](NC(=O)[C@H](Cc1ccccc1)NC(=O)[C@H](C)NC(=O)[C@H](CCCCNC(=O)COCCOCCNC(=O)COCCOCCNC(=O)CC[C@H](NC(=O)CCCCCCCCCCCCCCCCCCC(=O)O)C(=O)O)NC(=O)[C@H](CCC(N)=O)NC(=O)[C@H](C)NC(=O)[C@@H](NC(=O)[C@H](CCCCN)NC(=O)[C@H](CC(=O)O)NC(=O)[C@H](CC(C)C)NC(=O)C(C)(C)NC(=O)[C@@H](NC(=O)[C@H](CO)NC(=O)[C@H](Cc1ccc(O)cc1)NC(=O)[C@H](CC(=O)O)NC(=O)[C@H](CO)NC(=O)[C@@H](NC(=O)[C@H](Cc1ccccc1)NC(=O)[C@@H](NC(=O)CNC(=O)[C@H](CCC(=O)O)NC(=O)C(C)(C)NC(=O)[C@@H](N)Cc1ccc(O)cc1)[C@@H](C)O)[C@@H](C)O)[C@@H](C)CC)[C@@H](C)CC)C(C)C)C(=O)N[C@@H](C)C(=O)NCC(=O)NCC(=O)N1CCC[C@H]1C(=O)N[C@@H](CO)C(=O)N[C@@H](CO)C(=O)NCC(=O)N[C@@H](C)C(=O)N1CCC[C@H]1C(=O)N1CCC[C@H]1C(=O)N1CCC[C@H]1C(=O)N[C@@H](CO)C(N)=O [tirzepatide]
bioavailability at 24 h [1]: 10%

CC[C@H](C)[C@H](NC(=O)[C@H](Cc1ccccc1)NC(=O)[C@H](CCC(=O)O)NC(=O)[C@H](CCCCNC(=O)COCCOCCNC(=O)COCCOCCNC(=O)CC[C@H](NC(=O)CCCCCCCCCCCCCCCCC(=O)O)C(=O)O)NC(=O)[C@H](C)NC(=O)[C@H](C)NC(=O)[C@H](CCC(N)=O)NC(=O)CNC(=O)[C@H](CCC(=O)O)NC(=O)[C@H](CC(C)C)NC(=O)[C@H](Cc1ccc(O)cc1)NC(=O)[C@H](CO)NC(=O)[C@H](CO)NC(=O)[C@@H](NC(=O)[C@H](CC(=O)O)NC(=O)[C@H](CO)NC(=O)[C@@H](NC(=O)[C@H](Cc1ccccc1)NC(=O)[C@@H](NC(=O)CNC(=O)[C@H](CCC(=O)O)NC(=O)C(C)(C)NC(=O)[C@@H](N)Cc1cnc[nH]1)[C@@H](C)O)[C@@H](C)O)C(C)C)C(=O)N[C@@H](C)C(=O)N[C@@H](Cc1c[nH]c2ccccc12)C(=O)N[C@@H](CC(C)C)C(=O)N[C@H](C(=O)N[C@@H](CCCNC(=N)N)C(=O)NCC(=O)N[C@@H](CCCNC(=N)N)C(=O)NCC(=O)O)C(C)C [semaglutide]
solubility in aqueous buffer [2]: 3.2 mg/mL (≈ 778 µM)
